The source of these data is US6911324B2, “Induction of beta cell differentiation in human cells” (The Regents of the University of California, priority 2001, dated 2005).

Format in all cases: cell-based, human
One test relates to MycER fusion protein. Nature of the test: RT-PCR of c-Myc downstream targets cyclin E and cyclin A after MycER activation. The conditions noted are these: βlox5/PDX-1/MycER aggregates. The text has this: To test the hypothesis that decreased c-Myc expression in cell aggregates plays a causal role in promoting differentiation by cell-cell contact, we took advantage of the inducible properties of a fusion protein between an estrogen receptor and c-Myc (Eilers, et al. Nature 340:66-68 (1989)). MycER was expressed in TRM-6 and βlox5 by retroviral infection followed by puromycin selection. Selected βlox5 and TRM-6 cells expressed MycER as shown by western blot analysis. To determine whether the fusion protein was active, the expression of cyclin E and cyclin A was determined since they are known downstream targets of c-Myc.

In test [1] the test system is βlox5/PDX-1/MycER aggregates. Nature of the test: Ki-67 immunostaining for cell proliferation. The note with it: 4-OHTM added to aggregates; 16% without 4-OHTM; n=300 cells. From the text: PDX-1 and cell-cell contact caused a decrease in cell proliferation in βlox5/PDX-1/MycER cells as shown by immunostaining for the proliferation-associated nuclear antigen Ki-67. In monolayer culture, 77% of βlox5 cells expressed Ki67, while only 16% of the cells in βlox5/PDX-1/MycER aggregates were Ki67 positive (n=300 cells in each case). Addition of 4-OHTM to the aggregates increased the percentage of Ki67 positive cells to 57%. In the absence of 4-OHTM, few cells in the aggregates were positive for Ki-67, while in the presence of 4-OHTM many cells throughout the aggregates were positive.

In test [2] the test system is βlox5/PDX-1/MycER aggregates. Briefly: Hormone expression after c-Myc induction in βlox5/PDX-1/MycER aggregates (RT-PCR, insulin ELISA). On the procedure:
(§1) To determine whether the induction of differentiation in the TRM-6 and βlox5 cell lines requires downregulation of c-Myc expression, the effect of inducing c-Myc activity on hormone expression in cells expressing the MycER fusion protein was tested. 4-OHTM or the same amount of ethanol carrier was added to TRM-6/PDX-1 and βlox5/PDX-1 cells at the initiation of the four day period of aggregation required for hormone induction. In addition, 100 nM of the GLP-1 agonist exendin-4 was added to βlox5/PDX-1, as activation of the GLP-1 receptor is necessary for β-cell differentiation in that cell line (Itkin-Ansari, et al., Molec. Endocrinol. 14:814-822(2000)).
(§2) In the absence of 4-OHTM, TRM-6 aggregates expressed high levels of somatostatin after four days of aggregation, while βlox5 aggregates expressed high levels of insulin. […] Insulin protein (273±70.5 pmoles/L) was detected by ELISA in supernatant from βlox5/PDX-1/MycER aggregates in the absence of 4-OHTM but was undetectable in the presence of 4-OHTM. Data were obtained from four independent experiments. To determine whether c-Myc activation produced ablation of hormone expression as opposed to a switch to a different endocrine lineage, the expression of the other major pancreatic hormones, somatostatin, glucagon and pancreatic polypeptide, was measured in 4-OHTM-treated βlox5/PDX-1/MycER cells and found to be absent.
(In an ELISA, binding on a coated surface is turned into a signal by an enzyme label.)

The test system of another test is TRM-6/PDX-1 cells. Nature of the test: Somatostatin expression after c-Myc induction in TRM-6 aggregates. The note with it: four days of aggregation, presence of 4-OHTM. Here is the method:
as §1, §2

The subject of test [3] is βlox5/PDX-1/MycER aggregates. Briefly: Transcription factor expression after c-Myc activation (RT-PCR, EMSA, western blot). The note with it: c-Myc activation by 4-OHTM. On the procedure:
For western blots, whole-cell extracts (10 μg of protein) from monolayer cultures and aggregates of TRM-6 and βlox5 cells as well as whole-cell extracts of the MycER expressing clones were used. Expression of c-Myc and MycER was determined by Western blot analysis with the human c-Myc-specific monoclonal antibody Myc-9E10 (Santa Cruz Biotechnology, Santa Cruz, Calif.) at a dilution of 1:250. The same membrane was re-probed with anti-actin rabbit antibody A2066 (Sigma, Saint Louis, Mo.) in order to verify the protein equivalence when comparing monolayers to aggregates. Western Blot for Phospho-CREB (Ser133) was performed using a polyclonal antibody (PhosphoPlusCREB (Ser133) Antibody Kit, Cell Signaling Technology, Beverly, Mass.) at a dilution of 1:500. Bound antibody was detected with horseradish peroxidase-linked anti-mouse or anti-rabbit Ig (Amersham Pharmacia Biotech, Buckinghamshire, England) and ECL (Amersham Pharmacia Biotech, Buckinghamshire, England).
βlox5 cells express Pax6 and RIPE3b in both the uninduced and induced states. BETA2/NeuroD is present only when the cells are induced. […] As shown by electrophoretic mobility shift assay analysis (EMSA), although not quantitative, we found binding of PDX-1, BETA2/NeuroD1 or RIPE3b to the insulin promoter in the samples from βlox5/PDX-1/MycER aggregates cultured with and without 4-OHTM. […]
For orientation: A gel shift assay detects complexes by their altered migration in electrophoresis.

The test system of a further test is βlox5/PDX-1/MycER cells. Nature of the test: PDX-1 cellular localization and p38 activation state. The text has this: PDX-1 plays a role in the establishment and maintenance of β-cell differentiation. In both the βlox5 and TRM-6 cell lines, it is required for the induction of hormone expression. Therefore, PDX-1 was a good candidate for being a downstream target for c-Myc in the inhibition of hormone expression. Since, in the cell lines that we are studying, PDX-1 is introduced exogenously using a retroviral vector and is transcribed from the retroviral LTR promoter, it was unlikely that c-Myc would be acting at the transcriptional level. Therefore, we investigated PDX-1 cellular localization in βlox5/PDX-1/MycER cells in the presence and absence of 4-OHTM. […] However, many cells exposed to 4-OHTM continued to express PDX-1 in the nucleus and PDX-1 binding to a target DNA sequence could still be detected by EMSA. This could be due to the length of time that the cells were exposed to 4-OHTM or to other pathways such as p38 (RK/SAPK2) that influences PDX-1 localization and function.
Because PDX-1 localization has been reported to be influenced by the p38 pathway, the activation state of p38 was studied using a monoclonal antibody specific for the phosphorylated/active form of the enzyme. In control and 4-OHTM-treated βlox5/PDX-1/MycER cells, active p38 was present in the cytoplasm.

Another test has as its system βlox5/PDX-1 cells. Nature of the test: Expansion of βlox5/PDX-1 cells under continued administration. The note with it: continued administration of 4-OHTM; cells ordinarily almost completely growth arrested. From the text: The finding that c-Myc induces the translocation of PDX-1 to the cytoplasm provides important clues to the mechanism by which c-Myc may act on pancreatic endocrine cell proliferation and differentiation. In our system, not only does PDX-1 play a role in inducing hormone expression, but it also produces a marked growth arrest, particularly in the β-cell line βlox5. […] Thus, cell-cell contact and PDX-1 each play dual roles in inhibiting entry into the cell cycle as well as promoting differentiation.

In test [4] the test system is βlox5 cells. Nature of the test: RT-PCR analysis of pancreatic hormone gene expression in βlox5 cells. Here is the method:
FIG. 2: RT-PCR analysis of pancreatic hormone gene expression in βlox5. The conditions tested were βlox5 cells grown in monolayer culture, βlox5 cells infected with a retroviral vector expressing PDX-1, βlox5 cells grown as three-dimensional aggregates, and βlox5 cells treated with exendin-4. FIG. 2(A) insulin; FIG. 2(B) quantitative RT-PCR analysis of insulin gene expression; FIG. 2(C) other pancreatic hormones. Exendin-4 (Sigma) was used at a concentration of 10 nM. RT-PCR for insulin, somatostatin, glucagon, and IAPP have been described previously (Itkin-Ansari et al., submitted). Quantitative RT-PCR was done by interpolation from a standard curve constructed using a plasmid containing the human insulin cDNA.
PDX-1 also acted synergistically with cell-cell contact to further increase the level of somatostatin expression about 1,000-fold above the cells not expressing PDX-1, to a level similar to that found in normal human islets. To determine whether βlox5 could be induced to express pancreatic hormones, recombinant PDX-1 was expressed in βlox5 using a retroviral vector. […] Therefore, other factors were examined for their ability to induce hormone expression in βlox5 cells expressing PDX-1. Activin and betacellulin have been reported to be able to induce endocrine differentiation in cell lines and primary cells (Mashima et al., Diabetes 48:304-9 (1999), Huotari et al., Endocrinology 139, 1494-9 (1998), Mashima et al., J Clin Invest 97:1647-54 (1996), Yamaoka et al., J Clin Invest 102:294-301 (1998)). However, they had no effect on hormone expression in βlox5 cells (data not shown).
GLP-1, a small peptide cleaved from the proglucagon molecule, is an insulin secretogogue Drucker et al., Diabetes 47:159-69 (1998)).

Test [5] relates to βlox5 cells. Nature of the test: Analysis of transcription factors (BETA2 RT-PCR, CREB western blot) in βlox5 cells. On the procedure: FIG. 3: Analysis of transcription factors expressed in βlox5 cells. FIG. 3(A) electrophoretic mobility shift assay (EMSA) of PDX-1. EMSA for PDX-1 was performed using a probe derived from the human insulin promoter A5 element. FIGS. 3(B&C) RT-PCR analysis of BETA2 and Pax6. FIG. 3(D) Western blot analysis of CREB. FIG. 3(E) EMSA of RIPE3b.
The expression of transcription factors important in β-cell development was examined to determine whether they had been induced by PDX-1, cell-cell contact, and exendin-4. […] GLP-1 has been reported to increase cAMP levels and this has been thought to be a major mechanism by which GLP-1 acts as an insulin secretogogue (Serre et al., Endocrinology 139:4448-54 (1998)). […] RIPE3b, a factor that plays a critical role in insulin gene expression but that has not yet been cloned, is expressed in βlox5 irrespective of PDX-1, cell-cell contact, or exendin-4 (FIG. 3E).
For orientation: Immunoblotting shows a protein as a band on a membrane.

Test [6] relates to βlox5 cells expressing both NeuroD/BETA2 and PDX-1. Nature of the test: Insulin production (RT-PCR) in βlox5 cells expressing both NeuroD/BETA2 and PDX-1. Here is the method: Cells were cultured in DMEM with 5.5 mM glucose and 10% FBS. Selection of clones was conducted in the same medium containing 300 ug/ml Hygromycin B. Qualitative RT-PCR was performed according to Itkin-Ansari et al., Mol. Endocrinol. 14:814-822 (2000).
In light of the previous finding that activation of GLP-1 receptor is one of the necessary inducing factors for β-cell differentiation, βlox5 cells expressing both NeuroD/BETA2 and PDX-1 were also tested for insulin production, before and after stimulation by exendin-4. The cells were treated with 10 nM exendin-4 in the culture medium for four days before the assay.
Cell aggregation was induced as described by Itkin-Ansari et al., supra, 2000. Quantitative insulin RT-PCR was performed by interpolation from a standard curve constructed using a plasmid containing the human insulin cDNA, as described by Beattie et al., Diabetes, 48:1013-1019, 1999.

Setting [7] is: induced βlox5 cells (PDX-1, cell-cell contact, exendin-4).

For `CC/C(=C(\c1ccc(O)cc1)c1ccc(OCCN(C)C)cc1)c1ccccc1` [4-OHTM], in the test on MycER fusion protein, the “cyclin A expression” value is “did not affect” and the “cyclin E mRNA expression” value is reported as “increase”. In addition, the “percentage of Ki67 positive cells” value in test [1] is reported as 57%. In [2] (4-OHTM-treated βlox5/PDX-1/MycER cells), the “expression of somatostatin, glucagon and pancreatic polypeptide” value is “absent”. Moreover, in [2] (four days of aggregation, 100 nM exendin-4, presence of 4-OHTM), the “insulin mRNA” value is given as “neither somatostatin nor insulin mRNA was present”. Besides, in test [2] (presence of 4-OHTM, 273±70.5 pmoles/L in its absence, four independent experiments), the “insulin protein in supernatant by ELISA” value is on record as “undetectable”. For the same compound, the “somatostatin mRNA” value in the test with TRM-6/PDX-1 cells is “neither somatostatin nor insulin mRNA was present”. Besides, the “level of mRNA for Pax6 and induction of BETA2/NeuroD1 gene expression” value in test [3] (RT-PCR) is given as “did not result in a change”. The CREB expression entry in test [3] (western blot) is listed as “not affected”. The PDX-1 cellular localization entry in the test on βlox5/PDX-1/MycER cells (4-OHTM-induced activation of c-Myc) is given as “translocation of PDX-1 from the nucleus to the cytoplasm”. In the test on βlox5/PDX-1/MycER cells (4-OHTM-treated cells, antibody to phosphorylated/active p38), the “p38 expression or activation” value was “did not result in any changes”. The cell growth result in the test with βlox5/PDX-1 cells is listed as “rapid expansion”.

On to Activin, for which, in the test on βlox5 cells [4] (βlox5 cells expressing PDX-1, data not shown), the “effect on hormone expression in βlox5 cells” value was “no effect”.

As for exendin-4, the “effect on hormone expression in βlox5” value with βlox5 cells [4] (exendin-4 by itself, 10 nM, four days) is “no effect”. For the same compound, in the test on βlox5 cells [4] (setting [7]), the “Islet amyloid polypeptide (IAPP) mRNA” value is “expressed”; the “glucagon, somatostatin and pancreatic polypeptide (PP) expression” value was “not induced”. Further, the “insulin mRNA” value with βlox5 cells [4] (βlox5 cells expressing PDX-1, suspension culture as three-dimensional aggregates, 10 nM exendin-4) is on record as “a substantial amount of insulin mRNA was detectable”. The BETA2 expression result in the test on βlox5 cells [5] (PDX-1, cell-cell contact and exendin-4) was “induced only by the combination of all three inducing factors”. Also, the CREB expression entry in the test on βlox5 cells [5] (exendin-4 alone, independently of cell-cell contact and PDX-1) was “induced”. Further, the insulin production entry in test [6] (10 nM exendin-4, suspension culture, three-dimensional aggregates) is given as “clearly detectable”. Also, the insulin production result in test [6] (exendin-4 treatment alone, 10 nM, four days) is listed as “incapable of inducing insulin production”.
